The NIST ThermoML archive (doi:10.1016/j.tca.2010.11.002)

Columns and labels:
[1] = mn = molality of the nth substance listed, in mol/kg; details: 101 kPa, Liquid, Vibrating tube method
[2] = Liquid, Vibrating tube method

CN1CCCN(C)C1=O [1,3-dimethyl-3,4,5,6-tetrahydro-2(1H)-pyrimidinone] + O
mass density [kg/m3], [1]
Details | 278.15 K | 288.15 K | 298.15 K | 308.15 K | 313.15 K | 318.15 K
m1 = 0.03864 | 1000.41 | 999.51 | 997.43 | 994.38 | 992.55 | 990.54
m1 = 0.07586 | 1000.85 | 999.91 | 997.79 | 994.72 | 992.88 | 990.86
m1 = 0.1037 | 1001.18 | 1000.21 | 998.07 | 994.98 | 993.12 | 991.09
m1 = 0.1575 | 1001.83 | 1000.8 | 998.61 | 995.48 | 993.6 | 991.55
m1 = 0.2215 | 1002.6 | 1001.51 | 999.26 | 996.08 | 994.18 | 992.11
m1 = 0.2812 | 1003.34 | 1002.17 | 999.87 | 996.64 | 994.72 | 992.63
m1 = 0.407 | 1004.9 | 1003.6 | 1001.17 | 997.84 | 995.87 | 993.74
m1 = 0.5303 | 1006.46 | 1005.01 | 1002.46 | 999.04 | 997.02 | 994.85
m1 = 0.6771 | 1008.32 | 1006.7 | 1004.01 | 1000.47 | 998.39 | 996.17
m1 = 0.8298 | 1010.25 | 1008.46 | 1005.62 | 1001.96 | 999.83 | 997.56
m1 = 0.9878 | 1012.23 | 1010.27 | 1007.28 | 1003.5 | 1001.31 | 998.99

CN1CCCN(C)C1=O [1,3-dimethyl-3,4,5,6-tetrahydro-2(1H)-pyrimidinone] + [2H]O[2H]
mass density [kg/m3], [1]
Details | 278.15 K | 288.15 K | 298.15 K | 308.15 K | 313.15 K | 318.15 K
m1 = 0.0599 | 1105.6 | 1105.78 | 1104.3 | 1101.53 | 1099.72 | 1097.69
m1 = 0.08344 | 1105.61 | 1105.76 | 1104.25 | 1101.47 | 1099.64 | 1097.6
m1 = 0.1212 | 1105.63 | 1105.73 | 1104.18 | 1101.36 | 1099.52 | 1097.47
m1 = 0.1641 | 1105.66 | 1105.71 | 1104.11 | 1101.25 | 1099.39 | 1097.32
m1 = 0.2214 | 1105.72 | 1105.69 | 1104.03 | 1101.11 | 1099.23 | 1097.13
m1 = 0.3291 | 1105.85 | 1105.68 | 1103.9 | 1100.88 | 1098.96 | 1096.82
m1 = 0.5024 | 1106.17 | 1105.76 | 1103.77 | 1100.59 | 1098.6 | 1096.39
m1 = 0.6557 | 1106.53 | 1105.89 | 1103.73 | 1100.4 | 1098.34 | 1096.07
m1 = 0.7789 | 1106.85 | 1106.03 | 1103.73 | 1100.28 | 1098.17 | 1095.85
m1 = 0.9405 | 1107.31 | 1106.25 | 1103.76 | 1100.16 | 1097.99 | 1095.61
m1 = 1.074 | 1107.69 | 1106.44 | 1103.81 | 1100.09 | 1097.86 | 1095.43

[2H]O[2H] [water-d2] + CN1CCCN(C)C1=O
[1], m2 = 0
Details | mass density [kg/m3]
278.15 K | 1105.59
288.15 K | 1105.85
298.15 K | 1104.43
308.15 K | 1101.72
313.15 K | 1099.93
318.15 K | 1097.92

[2H]O[2H] [water-d2]
[2], 101 kPa
Details | mass density [kg/m3]
278.15 K | 1105.59
288.15 K | 1105.85
298.15 K | 1104.43
308.15 K | 1101.72
313.15 K | 1099.93
318.15 K | 1097.92

CN1CCCN(C)C1=O [1,3-dimethyl-3,4,5,6-tetrahydro-2(1H)-pyrimidinone]
[2], 101.33 kPa
Details | mass density [kg/m3]
278.15 K | 1076.18
288.15 K | 1067.81
298.15 K | 1059.46
308.15 K | 1051.12
313.15 K | 1046.95
318.15 K | 1042.78
